For assay [1], the target named is neuraminidase (NA) of influenza B/Perth/136/2015 (MUT-Y273, H273Y NA substitution) (Influenza B virus, UniProt A0A1S5RAG6, H273Y). The assay is classed as biochemical.
The target of assay [2] is neuraminidase (NA) of influenza B/Singapore/GP702/2015 (MUT-N197, D197N NA substitution) (Influenza B virus, UniProt A0A1S5RAG6, D197N). The assay is classed as biochemical.

Where “and” joins values, the source holds several entries; their conditions need not be identical. Equal entries are not always repeated.

As for `CCC(CC)[C@H](NC(C)=O)[C@@H]1[C@H](O)[C@@H](C(=O)O)C[C@H]1N=C(N)N` [Peramivir, peramivir], the “Fold difference in IC50 from corresponding wild-type value” in assay [1] is 85 fold and 80.9 ± 6.8 (85)^b fold; in assay [2] it was 3.0 ± 0.7 (3) fold. In addition, the IC50 in assay [1] (read-out: IC50 (nM), mean ± SD) came to 80.9 nM; in assay [2] (read-out: IC50 (nM), mean ± SD), 3 nM.

Usually IC50 stands for the midpoint of a concentration-inhibition curve.

Values taken from paper PMC6201084 (Antimicrobial Agents and Chemotherapy, 2018).
